Data as given in ChEMBL document CHEMBL4396891, “Recent update on anti-dengue drug discovery” (Eur J Med Chem, 2019).
≈ marks a conversion by molar mass, not a printed value.

Assays:
Genome polyprotein [1] = biological target: T1, Genome polyprotein (dengue virus type 2, UniProt P29990); test: Inhibition of DENV2 NS2B-NS3 serine protease expressed using Benzoyl-Nle-Lys-Arg-Arg-AMC as substrate measured preincubated for 3 mins followed by substrate addition by fluorescence assay
dengue virus type 2 [2] = test: Antiviral activity against DENV2 infected in BHK-21 cells assessed as viral replication; format: functional, organism-based
dengue virus type 2 [3] = test: Antiviral activity against DENV2 New Guinea C infected in human Huh7 cells assessed as reduction in viral titer after 3 to 4 days by MTT assay; format: functional, organism-based; conditions: Huh-7
Dengue virus [4] = test: Antiviral activity against dengue virus; format: functional, organism-based
dengue virus type 2 [5] = test: Antiviral activity against DENV2 infected in HEK293 cells assessed as reduction in plaque formation; format: functional, organism-based
dengue virus type 2 [6] = test: Antiviral activity against DENV2; format: functional, organism-based
dengue virus type 1 [7] = test: Antiviral activity against DENV1; format: functional, organism-based
dengue virus type 3 [8] = test: Antiviral activity against DENV3; format: functional, organism-based
dengue virus type 4 [9] = test: Antiviral activity against DENV4; format: functional, organism-based
Genome polyprotein [10] = biological target: T1, Genome polyprotein; test: Inhibition of DENV2 NS2B-NS3 serine protease using Bz-Nle-Lys-Arg-Arg-AMC as substrate after 15 mins by fluorescence assay
Nonstructural protein 5 [11] = biological target: T2, Nonstructural protein 5 (Dengue virus, UniProt V5TFZ2); test: Inhibition of dengue virus NS5 RNA dependent RNA polymerase
T2 sequence (V5TFZ2 whole entry): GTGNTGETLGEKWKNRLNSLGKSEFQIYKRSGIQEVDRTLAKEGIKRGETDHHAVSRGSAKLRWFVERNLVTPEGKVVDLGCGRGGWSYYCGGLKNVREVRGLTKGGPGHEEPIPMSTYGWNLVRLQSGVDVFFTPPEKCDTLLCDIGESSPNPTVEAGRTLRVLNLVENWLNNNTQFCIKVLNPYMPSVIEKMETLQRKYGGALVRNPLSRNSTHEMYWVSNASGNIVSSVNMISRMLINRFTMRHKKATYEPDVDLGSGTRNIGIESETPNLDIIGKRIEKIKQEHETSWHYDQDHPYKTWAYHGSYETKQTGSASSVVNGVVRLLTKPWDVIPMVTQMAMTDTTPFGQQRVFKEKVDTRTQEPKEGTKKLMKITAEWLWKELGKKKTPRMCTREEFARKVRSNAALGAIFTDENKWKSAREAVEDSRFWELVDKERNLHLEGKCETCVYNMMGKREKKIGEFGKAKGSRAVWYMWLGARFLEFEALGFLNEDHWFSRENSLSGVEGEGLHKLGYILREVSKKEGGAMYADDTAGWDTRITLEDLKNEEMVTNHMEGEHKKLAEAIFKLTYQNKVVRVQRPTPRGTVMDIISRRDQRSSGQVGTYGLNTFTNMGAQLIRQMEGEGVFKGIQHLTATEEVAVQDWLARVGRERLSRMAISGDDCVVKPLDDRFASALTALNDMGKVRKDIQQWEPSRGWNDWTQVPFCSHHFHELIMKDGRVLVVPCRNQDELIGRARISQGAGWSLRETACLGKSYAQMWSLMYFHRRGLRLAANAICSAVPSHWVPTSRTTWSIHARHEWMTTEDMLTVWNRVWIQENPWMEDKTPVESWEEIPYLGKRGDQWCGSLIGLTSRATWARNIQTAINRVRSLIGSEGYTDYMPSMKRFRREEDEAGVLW

dengue virus type 2 [12] = test: Antiviral activity against DENV2 infected in human Huh7 cells by qRT-PCR analysis; format: functional, organism-based; conditions: Huh-7
Nonstructural protein 5 [13] = biological target: T2, Nonstructural protein 5; test: Inhibition of DENV2 2'-O-methyltransferase using m7G*pppA-RNA as substrate; set-up: species or system dengue virus type 2
Nonstructural protein 5 [14] = biological target: T2, Nonstructural protein 5; test: Inhibition of DENV3 2'-O-methyltransferase using m7G*pppA-RNA as substrate; set-up: species or system dengue virus type 3
[15] = Inhibition of DENV2 N7-methyltransferase using G*pppA-RNA as substrate; set-up: species or system dengue virus type 2
[16] = Inhibition of DENV3 N7-methyltransferase using G*pppA-RNA as substrate; set-up: species or system dengue virus type 3
dengue virus type 2 [17] = test: Antiviral activity against DENV2 infected in BHK-21 cells by MTTR assay; format: functional, organism-based
[18] = biological target: Genome polyprotein (dengue virus type 2) (UniProt P29990); test: Inhibition of DENV2 NS2B-NS3 serine protease
Dengue virus [19] = test: Antiviral activity against dengue virus infected in HeLa cells assessed as reduction in viral propagation after 72 hrs by RT-qPCR analysis; format: functional, organism-based
dengue virus type 2 [20] = test: Antiviral activity against DENV2 infected in BHK-21 cells assessed as reduction in viral production; format: functional, organism-based
dengue virus type 2 [21] = test: Antiviral activity against DENV2 infected in human Huh-7 cells; format: functional, organism-based
dengue virus type 2 [22] = test: Antiviral activity against DENV2 infected in BHK cells assessed as reduction in viral yield after 24 ro 48 hrs by luciferase reporter gene assay; format: functional, organism-based
dengue virus type 2 [23] = test: Antiviral activity against DENV2 infected in BHK-21 cells assessed as viral titer by plaque assay; format: functional, organism-based
dengue virus type 1 [24] = test: Antiviral activity against DENV1 FGA/89 infected in human Huh7.5 cells after 72 hrs; format: functional, organism-based; conditions: FGA/89, Huh7.5, 72 h
dengue virus type 2 [25] = test: Antiviral activity against DENV2 ICC-265 infected in human Huh7.5 cells after 72 hrs; format: functional, organism-based; conditions: ICC-265, Huh7.5, 72 h
dengue virus type 3 [26] = test: Antiviral activity against DENV3 97 infected in human Huh7.5 cells after 72 hrs; format: functional, organism-based; conditions: Dengue virus, 97, Huh7.5, 72 h
dengue virus type 4 [27] = test: Antiviral activity against DENV4 TVP360 infected in human Huh7.5 cells after 72 hrs; format: functional, organism-based; conditions: TVP360, Huh7.5, 72 h

Which results are given for Cc1ccc(C2=NC(=O)/C(=C/c3cc(O)c(O)c(Br)c3)S2)cc1?
IC50 (Genome polyprotein [1]): 2.94 to 4.06 µM; EC50 (dengue virus type 2 [2]): 6.9 µM

With COc1cc(/C(C#N)=C/c2cc3ccccc3s2)cc(OC)c1OC as the molecule, how does the EC50 (dengue virus type 2 [3]) read?
Its EC50 is 7.22 µM.

Which EC50 (Dengue virus [4]) does the source give for CC[C@](C)(O)CCCCC[C@H]1C=CC(=O)O1 here?
The EC50 was 11.2 to 21.2 µM.

With Cc1cnc(NC(=O)c2cc(S(=O)(=O)N(C)C)ccc2N2CCCC2)s1 as the molecule, how does the EC50 (dengue virus type 2 [5]) read?
The EC50 was 0.85 µM.

For CC(=O)O[C@H]1[C@H]2c3cc4c(cc3CN3CCC(=C[C@@H]1O)[C@H]23)OCO4, which EC50 (Dengue virus [4]) is on record?
Its EC50 is 0.4 to 1.8 µM.

With CC(C)C[C@@H]1NC(=O)[C@@H]2C[C@@H](O)CN2C1=O as the molecule, how does the EC50 (Dengue virus [4]) read?
The EC50 was 11.2 to 21.2 µM.

Which EC50 (Dengue virus [4]) does the source give for CC(=O)O[C@@H]1C(=O)C=C2CCN3Cc4cc5c(cc4[C@H]1[C@@H]23)OCO5 here?
Its EC50 is 0.4 to 1.8 µM.

Which results are given for Oc1cccc(Nc2nc(NCc3ccc(-c4ccccc4)cc3)nc3nc[nH]c23)c1?
EC50 (dengue virus type 2 [6]): 2.8 µM; EC50 (dengue virus type 1 [7]): 1.38 to 2.19 µM; EC50 (dengue virus type 3 [8]): 1.38 to 2.19 µM; EC50 (dengue virus type 4 [9]): 1.38 to 2.19 µM

With O=C1C=C2CCN3Cc4cc5c(cc4[C@H]([C@@H]1O)[C@@H]23)OCO5 as the molecule, how does the EC50 (Dengue virus [4]) read?
The EC50 was 0.4 to 1.8 µM.

For CCc1ccc(NS(=O)(=O)c2ccc(N3C(=O)c4ccccc4C3=O)cc2)cc1, which IC50 (Genome polyprotein [10]) is on record?
Its IC50 is 48.2 µM.

With CN1CCN(CCCN2c3ccccc3Sc3ccc(Cl)cc32)CC1 [PROCHLORPERAZINE] as the molecule, how does the EC50 (dengue virus type 2 [6]) read?
Its EC50 is 0.088 µM.

With C=C(C)[C@@H]1CC[C@]2(C(=O)O)CC[C@]3(C)[C@H](CC[C@@H]4[C@@]5(C)CC[C@H](O)C(C)(C)[C@@H]5CC[C@]43C)[C@@H]12 [BETULINIC ACID] as the molecule, how does the IC50 (Nonstructural protein 5 [11]) read?
Its IC50 is 1.7 to 2.1 µM.

With CNCCC(Oc1ccc(C(F)(F)F)cc1)c1ccccc1 (centres undefined) [FLUOXETINE] as the molecule, how does the IC50 (dengue virus type 2 [12]) read?
Its IC50 is 0.38 µM.

Which results are given for Cc1ccc(C(=O)c2cc(O)c(O)c([N+](=O)[O-])c2)cc1 [TOLCAPONE]?
IC50 (Genome polyprotein [1]): 0.64 to 1.15 µM; EC50 (dengue virus type 2 [2]): 2.29 µM

Which results are given for CC1=C(Nc2c(C)cc(O)cc2O)C(=O)C=c2oc3c(c21)C(C)=C(Nc1c(C)cc(O)cc1O)C(=O)C=3?
IC50 (Nonstructural protein 5 [13]): 2.3 to 21 µM; IC50 (Nonstructural protein 5 [14]): 2.3 to 21 µM; IC50 [15]: 28 to 32 µM; IC50 [16]: 28 to 32 µM

For CC1(C)O[C@H]1[C@H]1C[C@@H]([C@H]2CC[C@]3(C)C4=CC[C@H]5C(C)(C)C(=O)CC[C@]5(C)[C@H]4CC[C@@]23C)[C@H](O)O1, which EC50 (dengue virus type 2 [17]) is on record?
The EC50 was 12 µM.

What does the source list for CCCCC1C(C(=O)CC)C(c2ccccc2)CCN1C(=O)OC(C)(C)C (centres undefined)?
EC50 (dengue virus type 2 [6]): 3.2 µM; INH [18]: 214 µM

For CCN(CC)Cc1ccc(C(=O)N(CCc2ccccc2OC)[C@@H]2CCNC2)cc1, which IC50 (Dengue virus [19]) is on record?
Its IC50 is 36.5 µM.

What about the IC90 (Dengue virus [19]) of the same molecule?
The IC90 was 35.5 µM.

With O=C1c2ccccc2C(=O)N1c1ccc(S(=O)(=O)Nc2cccc3ccccc23)cc1 as the molecule, how does the IC50 (Genome polyprotein [10]) read?
Its IC50 is 122 µM.

Which EC50 (dengue virus type 2 [20]) does the source give for Cc1cc(N2CCN(C)CC2)ccc1NC(=O)c1c2c(nc3ccccc13)CCN(Cc1ccccc1)C2 here?
The EC50 was 5 µM.

For C/C=C(\C)C(=O)O[C@@H]1CC[C@]2(C)[C@H]3CC[C@@]4(C)[C@@H]([C@@H]5C[C@H]([C@@H]6OC6(C)C)O[C@H]5O)CC[C@]4(C)C3=CC[C@H]2C1(C)C, which EC50 (dengue virus type 2 [17]) is on record?
Its EC50 is 3 µM.

With C=C1CC/C=C(\C)CC[C@@H]2[C@@H]1CC2(C)C [BETA-CARYOPHYLLENE] as the molecule, how does the IC50 (dengue virus type 2 [6]) read?
The IC50 was 22 µM.

With O=c1c2cc(O)c(O)cc2oc2cc(O)c([C@@H]3O[C@H](CO)[C@@H](O)[C@H](O)[C@H]3O/C=C/c3ccccc3)c(O)c12 as the molecule, how does the EC50 (dengue virus type 2 [21]) read?
The EC50 was 3.5 µg/mL (≈ 6.67 µM).

For CCN(CC)CCCC(C)Nc1c2ccc(Cl)cc2nc2ccc(OC)cc12 (centres undefined) [QUINACRINE], which EC50 (dengue virus type 2 [22]) is on record?
The EC50 was 5.3 µM.

With C#Cc1cccc(Nc2ncnc3cc(OCCOC)c(OCCOC)cc23)c1 [ERLOTINIB] as the molecule, how does the EC50 (dengue virus type 2 [23]) read?
Its EC50 is 4.07 µM.

With CCCCCCCCCCCCNCCNC(=O)C[C@@]1(O)C[C@@H](O)[C@@H]2OC(C)(C)O[C@@H]2C1 as the molecule, how does the IC50 (dengue virus type 1 [24]) read?
Its IC50 is 6.9 to 10.4 µM.

What about the IC50 (dengue virus type 2 [25]) of the same molecule?
The IC50 was 6.9 to 10.4 µM.

And the IC50 (dengue virus type 3 [26])?
Its IC50 is 6.9 to 10.4 µM.

And the IC50 (dengue virus type 4 [27])?
Its IC50 is 6.9 to 10.4 µM.
